Reference: patent publication US9108983B2, “Pyrrole compounds, a process for their preparation and pharmaceutical compositions containing them” (LES LABORATOIRES SERVIER, priority 2013, dated 2015)
Structures can show the parent of a compound that is named as a salt. Where two headings read alike, the source gives them in different places.

Columns and labels:
Bcl-2 protein = Bcl-2 protein (histag-Bcl-2, UniProtKB P10415) (Homo sapiens (Human), UniProt P10415); test: Inhibition of Bcl-2 by the fluorescence polarisation technique; format: binding; conditions: incubation for 2 hours, read-out: IC50 (nM) Bcl-2 FP
Procedure, shortened: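 In pH 7.4 buffer (Hepes 10 mM, NaCl 150 mM, Tween20 0.05%), test compounds at increasing concentrations competed with a fluorescein peptide (1.00×10^−8 M final) for histag-Bcl-2 (2.50×10^−8 M final). Readout was fluorescence polarisation after a 2 h incubation.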

[1] = tested on: RS4;11 leukaemia tumour line; test: In vitro cytotoxicity (Microculture Tetrazolium Assay); format: cell-based; conditions: RS4;11 cells, exposed for 48 hours, cell viability, read-out: IC50 (nM) MTT RS4;11
Experimental: The cytotoxicity studies were carried out on the RS4;11 leukaemia tumour line.
The cells are distributed onto microplates and exposed to the test compounds for 48 hours.
The cell viability is then quantified by a colorimetric assay, the Microculture Tetrazolium Assay (Cancer Res., 1987, 47, 939-942).

Chain of Bcl-2 protein (P10415 whole entry): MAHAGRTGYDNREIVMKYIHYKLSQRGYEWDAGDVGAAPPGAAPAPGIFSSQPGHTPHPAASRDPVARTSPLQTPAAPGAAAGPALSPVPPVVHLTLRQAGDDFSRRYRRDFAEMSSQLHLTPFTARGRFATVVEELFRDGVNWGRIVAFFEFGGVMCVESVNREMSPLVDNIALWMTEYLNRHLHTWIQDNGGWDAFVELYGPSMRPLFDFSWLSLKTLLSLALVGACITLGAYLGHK

| Compound | IC50 (Bcl-2 protein) | IC50 [1] | IC50 ([1]; Homo sapiens, RS4-11, 48 h) |
| --- | --- | --- | --- |
| Cc1c(C(=O)N(c2ccccc2)c2ccc(O)cc2)cc(-c2cc3c(cc2C(=O)N2Cc4ccccc4C[C@H]2CN2CCOCC2)OCO3)n1C [Example 15, N-(4-Hydroxyphenyl)-1,2-dimethyl-5-(6-{[(3S)-3-(morpholin-4-ylmethyl)-3,4-dihydroisoquinoin-2(1H)-yl]carbny}-1,3-benzodioxo-5-yl)-N-pheny-1H-pyrrole-3-carboxamide hydrochloride] | 11.1 nM | 69.4 nM |  |
| Cc1c(C(=O)N(C)c2ccc(O)cc2)cc(-c2ccc(CNS(=O)(=O)CCc3ccc(F)cc3)cc2C(=O)N2Cc3ccccc3C[C@H]2C)n1C [Example 59, 5-(4-[({[2-(4-Fluorophenyl)ethyl]sulphonyl}amino)methyl]-2-{[(3R)-3-methyl-3,4-dihydroisoquinolin-2(1H)-yl]carbonyl}phenyl)-N-(4-hydroxyphenyl)-N,1,2-trimethyl-1H-pyrrole-3-carboxamide] | 134 nM |  | > 600 nM |
| Cc1c(C(=O)N(c2ccc(O)cc2)c2cnn(C)c2)cc(-c2cc(Cl)ccc2C(=O)N2Cc3ccccc3C[C@H]2CN2CCN3CCOC[C@H]3C2)n1C [Example 116, 5-(5-Chloro-2-{[(3S)-3-[(9aR)-hexahydropyrazino[2,1-c][1,4]oxazin-8(1H)-ylmethyl]-3,4-dihydroisoquinolin-2(1H)-yl]carbonyl}phenyl)-N-(4-hydroxyphenyl)-1,2-dimethyl-N-(1-methyl-1H-pyrazol-4-yl)-1H-pyrrole-3-carboxamide dihydrochloride] | 3.4 nM |  | 47.8 nM |
| 5-(5-Fluoro-4-methoxy-2-{[(3S)-3-(morpholin-4-ylmethyl)-3,4-dihydroisoquinolin-2(1H)-yl]carbonyl}phenyl)-N-(4-hydroxyphenyl)-1,2-dimethyl-N-(1-methyl-2,3-dihydro-1H-pyrrolo[2,3-b]pyridin-5-yl)-1H-pyrrole-3-carboxamide hydrochloride [Example 210] | 8.8 nM | 47.2 nM |  |
| COc1cc(C#N)cc(N(C(=O)c2cc(-c3cc(F)ccc3C(=O)N3Cc4ccccc4C[C@H]3CN3CCOCC3)n(C)c2C)c2ccc(O)cc2)c1 [Example 425, N-(3-Cyano-5-methoxyphenyl)-5-(5-fluoro-2-{[(3S)-3-(morpholin-4-ylmethyl)-3,4-dihydroisoquinolin-2(1H)-yl]carbonyl}phenyl)-N-(4-hydroxyphenyl)-1,2-dimethyl-1H-pyrrole-3-carboxamide hydrochloride] | 4.2 nM |  | 62 nM |
| Cc1c(C(=O)N(c2ccc(O)cc2)c2cnn(C)c2)cc(-c2cc3c(cc2C(=O)N2Cc4ccccc4C[C@H]2C)OCO3)n1CCN [Example 30, 1-(2-Aminoethyl)-N-(4-hydroxyphenyl)-2-methyl-5-(6-{[(3R)-3-methyl-3,4-dihydroisoquinolin-2(1H)-yl]carbonyl}-1,3-benzodioxol-5-yl)-N-(1-methyl-1H-pyrazol-4-yl)-1H-pyrrole-3-carboxamide hydrochloride] | 4.7 nM |  | 771 nM |
| COc1ncc(N(C(=O)c2cc(-c3cc(F)c(OC)cc3C(=O)N3Cc4ccccc4C[C@H]3CN3CCOCC3)n(C)c2C)c2ccc(O)cc2)cn1 [Example 439, 5-(5-Fluoro-4-methoxy-2-{[(3S)-3-(morpholin-4-ylmethyl)-3,4-dihydroisoquinolin-2(1H)-yl]carbonyl}phenyl)-N-(4-hydroxyphenyl)-N-(2-methoxypyrimidin-5-yl)-1,2-dimethyl-1H-pyrrole-3-carboxamide hydrochloride] | 6.1 nM |  | 329 nM |
| Cc1c(C(=O)N(c2ccc(O)cc2)c2cnc3c(ccn3C)c2)cc(-c2cc(CNC(=O)COc3ccccc3)ccc2C(=O)N2Cc3ccccc3C[C@H]2C)n1C [Example 54, N-(4-Hydroxyphenyl)-1,2-dimethyl-5-(2-{[(3R)-3-methyl-3,4-dihydroisoquinolin-2(1H)-yl]carbonyl}-5-{[(phenoxyacetyl)amino]methyl}phenyl)-N-(1-methyl-1H-pyrrolo[2,3-b]pyridin-5-yl)-1H-pyrrole-3-carboxamide] | 18 nM |  | 30.5 nM |
